According to patent publication US9944654B2, “Nargenicin compounds and uses thereof as antibacterial agents” (priority 2014, dated 2018):
In brackets after ≈: the same amount, converted by molar mass. Where two headings read alike, the source gives them in different places.

What was measured:
[1] = system: Streptococcus pneumoniae MB6357 (CL 2883); test: Nargenicin antibacterial assay (MIC), S. pneumoniae; format: cell-based; conditions: for MIC: Streptococcus pneumoniae
[2] = system: Pseudomonas aeruginosa MB5890 (CB1101, efflux-deleted); test: microbe, parasite or virus in culture; format: cell-based; conditions: * = some reduction of growth versus control at […]; for MIC: Pseudomonas aeruginosa, read-out: P. aeruginosa MB5890 efflux-del (MIC), MHII broth
[3] = biological target: T1, S. aureus DnaE (DNA polymerase III α-subunit homolog from Staphylococcus aureus) (Staphylococcus aureus, UniProt Q5HF71); test: biochemical; format: biochemical
T1 construct: SaDnaE (S. aureus DnaE residues 1-1065); 6xHis (N); made in house; host or cells: E. coli BL21-AI
T1 sequence (Q5HF71 1-1065): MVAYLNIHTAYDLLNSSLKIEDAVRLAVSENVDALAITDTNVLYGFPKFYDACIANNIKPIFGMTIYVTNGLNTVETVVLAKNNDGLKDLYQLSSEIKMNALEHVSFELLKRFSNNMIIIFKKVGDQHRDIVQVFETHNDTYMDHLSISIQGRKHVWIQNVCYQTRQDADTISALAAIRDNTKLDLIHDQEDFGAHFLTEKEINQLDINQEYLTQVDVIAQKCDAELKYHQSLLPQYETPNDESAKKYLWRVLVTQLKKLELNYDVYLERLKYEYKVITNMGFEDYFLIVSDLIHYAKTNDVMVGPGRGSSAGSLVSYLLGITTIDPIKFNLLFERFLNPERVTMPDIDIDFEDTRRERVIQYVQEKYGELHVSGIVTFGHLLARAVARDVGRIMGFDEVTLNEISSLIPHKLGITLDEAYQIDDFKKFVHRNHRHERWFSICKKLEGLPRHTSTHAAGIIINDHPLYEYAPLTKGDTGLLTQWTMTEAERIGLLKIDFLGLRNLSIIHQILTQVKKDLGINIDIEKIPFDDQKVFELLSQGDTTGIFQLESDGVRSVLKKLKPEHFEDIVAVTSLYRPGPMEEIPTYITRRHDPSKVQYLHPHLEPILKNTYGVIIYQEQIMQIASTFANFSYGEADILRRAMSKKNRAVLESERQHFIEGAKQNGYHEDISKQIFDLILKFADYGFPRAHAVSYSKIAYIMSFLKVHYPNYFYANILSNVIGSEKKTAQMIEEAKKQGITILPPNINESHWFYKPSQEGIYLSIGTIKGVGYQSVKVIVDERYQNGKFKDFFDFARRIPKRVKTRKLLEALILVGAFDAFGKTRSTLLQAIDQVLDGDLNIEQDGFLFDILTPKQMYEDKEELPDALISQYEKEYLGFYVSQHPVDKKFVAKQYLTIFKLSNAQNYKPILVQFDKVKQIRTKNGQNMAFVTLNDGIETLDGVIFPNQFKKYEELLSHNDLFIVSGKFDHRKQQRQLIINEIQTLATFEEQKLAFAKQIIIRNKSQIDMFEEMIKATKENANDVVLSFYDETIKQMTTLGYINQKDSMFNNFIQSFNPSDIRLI
Description: (§1) Plasmids encoding EcDnaE (E. coli DnaE residues 1-1160) and SaDnaE (S. aureus DnaE residues 1-1065) with 6×His N-terminal tags, were overexpressed in BL21(DE3) and BL21-AI cells (Invitrogen), respectively. Cells were grown in LB media to an OD ˜0.45 pelleted and then resuspended in Minimal Media, as described in Pryor et al. (1997, Protein Expr Purif. 10:309-19), and inducer (0.4 mM IPTG or 0.2% arabinose) for 21 hours at 18° C. at 220 rpm. Cells were then harvested, frozen for 20 minutes at −80° C. and thawed. Pellets were resuspended in 1× Talon buffer (50 mM Sodium Phosphate, 300 mM Sodium Chloride, pH 7.4) +10% glycerol +Roche PI's (-EDTA). Cells were lysed with two passes through a French press, then centrifuged for 45 minutes at 40,000 rpm (70Ti, Beckman). Supernatant was bound to 5 mL TALON resin (CLONTECH) for 1 hour at room temperature on Nutator. TALON resin was washed with 10 mM imidizole, and DnaE was eluted with 250 mM imidizole. Eluate was concentrated and run on a size exclusion column (SEC200, GE Healthcare) in the following buffer; 25 mM HEPES, 30 mM NaCl,1 mM CaCl2, 5% glycerol, pH 7.9. Pool SEC fractions based on SDS-PAGE run, aliquot, freeze, and store at -80° C.
(§2) DnaE was diluted in 50 mM potassium phosphate pH 7.5, 5 mM BME, 10% glycerol and 200 mM NaCl prior to use.
(§3) The purpose of the DnaE single enzyme assay is to determine the ability of compounds to inhibit the DNA polymerase III α-subunit homolog from Staphylococcus aureus or the α-subunit from Escherichia coli without the other components of the replication machinery. The DnaE single enzyme assay was a modified version of the method, Standard Pol III Assay Using Activated DNA and Four dNTPs, described by Butler et al., 2008, Methods in Molecular Medicine: New Antibiotic Targets 142:25-36. Briefly, in 96-well plates, enzyme was added to a mixture containing 30 mM Tris-HCl pH 7.5, 20% glycerol, 4 mM DTT, 10 mM Mg acetate, 0.025 mM dATP, 0.025 mM dGTP, 0.025 mM dc:TP, 0.011 mM ^3H-dTTP 1 mCi/ml (Perkin-Elmer), and 0.298 mg/mL Dnase I (Sigma) treated “activated” Calf Thymus DNA (Worthington Biochemical). The assay was set up so that 5 μl of compound was distributed to the plates, 90 μl of reaction mix was added to the compound, and 5 μl of enzyme was added to start the reaction. Assays were initiated by the addition of 0.8 μg/ml E. coli or 0.05 μg/ml S. aureus DnaE, incubated for 30 min at 30° C., and terminated by the addition of a 20% trichloroacetic acid and 0.2% sodium pyrophosphate solution. Precipitated labeled DNA was collected on Glass-fiber Filtermat A using Micro96 Harvester, and the filters were washed, dried, and counted in a Microbeta Trilux (Perkin Elmer). Serial dilutions of compounds (in DMSO) were added to the plates before enzyme addition.

[4] = system: Escherichia coli MB5747 (LS 883, tolC); test: microbe, parasite or virus in culture; format: cell-based; conditions: * = some reduction of growth versus control at […]; for MIC: Escherichia coli, read-out: E. coli LS883 tolC (MIC), MHII broth
[5] = biological target: T2, E. coli DnaE (DNA polymerase III α-subunit from Escherichia coli) (Escherichia coli, UniProt P10443); test: In vitro DnaE single enzyme assay (E. coli); format: biochemical
T2 construct: EcDnaE (E. coli DnaE residues 1-1160); 6xHis (N); made in house; host or cells: E. coli BL21(DE3)
T2 sequence (P10443 whole entry, the tested form may be a part): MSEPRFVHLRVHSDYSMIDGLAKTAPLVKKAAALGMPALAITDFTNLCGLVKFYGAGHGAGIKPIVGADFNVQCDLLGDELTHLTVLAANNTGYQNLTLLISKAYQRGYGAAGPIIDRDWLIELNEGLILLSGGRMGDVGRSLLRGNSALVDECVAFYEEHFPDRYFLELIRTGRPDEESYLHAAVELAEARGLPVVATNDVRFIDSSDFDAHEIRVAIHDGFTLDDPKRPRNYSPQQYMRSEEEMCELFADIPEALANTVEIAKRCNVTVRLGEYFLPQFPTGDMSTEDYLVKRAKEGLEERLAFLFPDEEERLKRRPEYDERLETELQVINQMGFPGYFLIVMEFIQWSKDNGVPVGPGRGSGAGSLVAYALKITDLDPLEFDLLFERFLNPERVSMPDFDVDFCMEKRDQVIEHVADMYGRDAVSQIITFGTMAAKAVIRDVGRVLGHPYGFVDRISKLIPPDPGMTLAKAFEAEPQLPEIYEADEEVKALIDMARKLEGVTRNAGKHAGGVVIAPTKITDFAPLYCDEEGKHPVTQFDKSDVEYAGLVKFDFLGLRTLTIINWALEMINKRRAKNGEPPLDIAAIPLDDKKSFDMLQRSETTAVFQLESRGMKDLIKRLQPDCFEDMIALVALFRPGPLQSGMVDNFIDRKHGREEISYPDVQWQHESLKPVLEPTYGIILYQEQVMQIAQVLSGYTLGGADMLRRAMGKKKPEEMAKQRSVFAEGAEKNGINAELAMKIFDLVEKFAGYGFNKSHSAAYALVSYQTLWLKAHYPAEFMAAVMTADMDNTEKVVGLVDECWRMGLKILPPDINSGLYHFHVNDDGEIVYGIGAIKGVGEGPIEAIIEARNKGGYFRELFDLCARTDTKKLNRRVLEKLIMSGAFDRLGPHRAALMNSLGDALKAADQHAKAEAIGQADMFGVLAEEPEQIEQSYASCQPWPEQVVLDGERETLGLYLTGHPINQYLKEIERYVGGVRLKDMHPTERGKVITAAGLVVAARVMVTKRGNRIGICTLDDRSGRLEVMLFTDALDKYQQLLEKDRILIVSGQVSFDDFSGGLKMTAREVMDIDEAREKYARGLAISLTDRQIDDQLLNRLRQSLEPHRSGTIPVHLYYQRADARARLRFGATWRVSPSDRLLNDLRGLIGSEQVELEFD
Description: as §1, §2, §3

[6] = read-out: S. pneumoniae MB2883 (MIC)
[7] = read-out: S. aureus DnaE IC50 (converted)
[8] = read-out: S. pneumoniae MB2883 (MIC), Isosensitest broth, * = some reduction of growth versus control at […]

Structure (SMILES)	IC50 ([3]; S. aureus DnaE IC50)	IC50 ([5]; E. coli DnaE IC50)	MIC [1, 6]	MIC [2]	IC50 [3, 7]	MIC [4]	MIC [1, 8]	also measured
CO[C@H]1CC2C=C[C@H]3[C@H]4O[C@]2(/C(C)=C/[C@@H](C)[C@@H]([C@@H](C)OC(=O)OC2CCC(O)CC2)OC1=O)[C@@H]3[C@H](O)[C@@H](C)[C@H]4OC(=O)c1ccc[nH]1 (single isomer, unassigned) [Example 35]	–	–	–	–	–	–	–	S. pneumoniae MB2883 (MIC) ([1]; Isosensitest broth, * = some reduction of growth versus control at […]): 64 µg/mL; P. aeruginosa MB5890 efflux-del (MIC) ([2]; MHII broth): >128 µg/mL; IC50 ([3]; read-out: S. aureus DnaE IC50): 0.0106 µM; E. coli LS883 tolC (MIC) ([4]; MHII broth): 32 µg/mL; IC50 ([5]; read-out: E. coli DnaE IC50 (converted)): > 76 µM
CCCNC(=O)O[C@H](C)[C@H]1OC(=O)[C@@H](OC)C[C@H]2C=C[C@H]3[C@H]4O[C@]2(/C(C)=C/[C@H]1C)[C@@H]3[C@H](O)[C@@H](C)[C@H]4OC(=O)c1ccc[nH]1 [Example 2, (3R,4S,7S,8aS,10aR,11R,12R,13R,14R,14aS,14bS,E)-14-hydroxy-7-methoxy-1,3,13-trimethyl-6-oxo-4-((R)-1-((propylcarbamoyl)oxy)ethyl)-3 ,4,6,7,8,8a,10a,11,12,13,14,14a-dodecahydro-11,14b-epoxynaphtho[2,1-e]oxecin-12-yl 1H-pyrrole-2-carboxylate]	0.035 µM	51.6 µM	–	–	–	–	–	–
CO[C@H]1CC2C=C[C@H]3[C@H]4O[C@]2(/C(C)=C/[C@@H](C)[C@@H]([C@@H](C)OC(=O)NC(CO)(CO)CO)OC1=O)[C@@H]3[C@H](O)[C@@H](C)[C@H]4OC(=O)c1ccc[nH]1 (some centres unmarked) [Example 22]	–	> 151 µM	64 µg/mL (≈ 96.6 µM)	64 µg/mL (≈ 96.6 µM)	< 0.00905 µM	4 µg/mL (≈ 6.04 µM)	–	–
CO[C@H]1CC2C=C[C@H]3[C@H]4O[C@]2(/C(C)=C/[C@@H](C)[C@@H]([C@@H](C)OC(=O)OCCCO)OC1=O)[C@@H]3[C@H](O)[C@@H](C)[C@H]4OC(=O)c1ccc[nH]1 (stereo partly drawn) [Example 26, (3R,4S,7S,10aR,11R,12R,13R,14R,14aS,14bS,E)-14-hydroxy-4-((R)-1-(((3-hydroxypropoxy)carbonyl)oxy)ethyl)-7-methoxy-1,3,13-trimethyl-6-oxo-3,4,6,7,8,8a,10a,11,12,13,14,14a-dodecahydro-11,14b-epoxynaphtho[2,1-e]oxecin-12-yl 1H-pyrrole-2-carboxylate]	< 0.00971 µM	130 µM	–	–	–	–	–	–
CCOC(=O)O[C@H](C)[C@H]1OC(=O)[C@@H](OC)CC2C=C[C@H]3[C@H]4O[C@]2(/C(C)=C/[C@H]1C)[C@@H]3[C@H](O)[C@@H](C)[C@H]4OC(=O)c1ccc[nH]1 (some centres unmarked) [Example 29]	–	76.6 µM	16 µg/mL (≈ 27.2 µM)	> 128 µg/mL	< 0.0102 µM	8 µg/mL (≈ 13.6 µM)	–	–
CO[C@H]1C[C@H]2C=C[C@H]3[C@H]4O[C@]2(/C(C)=C/[C@@H](C)[C@@H]([C@@H](C)OC(=O)CBr)OC1=O)[C@@H]3[C@H](O)[C@@H](C)[C@H]4OC(=O)c1ccc[nH]1 [Example 56, (3R,4S,7S,8aS,10aR,11R,12R,13R,14R,14aS,14bS,E)-4-((R)-1-(2-bromoacetoxy)ethyl)-14-hydroxy-7-methoxy-1,3,13-trimethyl-6-oxo-3,4,6,7,8,8a,10a,11,12,13,14,14a-dodecahydro-11,14b-epoxynaphtho[2,1-e]oxecin-12-yl 1H-pyrrole-2-carboxylate]	< 0.00943 µM	48.7 µM	–	–	–	–	–	–
CO[C@H]1C[C@H]2C=C[C@H]3[C@H]4O[C@]2(/C(C)=C/[C@@H](C)[C@@H]([C@@H](C)OCSC)OC1=O)[C@@H]3C(=O)[C@@H](C)[C@H]4OC(=O)c1ccc[nH]1 [Example 58]	–	36.6 µM	–	> 128 µg/mL	> 174 µM	> 8 µg/mL	> 128 µg/mL	–
CCN[C@H]1[C@H](C)[C@@H](O)[C@@H]2[C@H]3C=C[C@@H]4C[C@H](OC)C(=O)O[C@H]([C@@H](C)O)[C@H](C)/C=C(\C)[C@@]24O[C@H]31 [Example 147, (3R,4S,7S,8aS,10aR,11R,12S,13S,14R,14aS,14bS,E)-12-(ethylamino)-14-hydroxy-4-((R)-1-hydroxyethyl)-7-methoxy-1,3,13-trimethyl-3,4,8,8a,10a,11,12,13,14,14a-decahydro-11,14b-epoxynaphtho[2,1-e]oxecin-6(7H)-one]	–	> 222 µM	–	> 128 µg/mL	0.667 µM	> 128 µg/mL	> 128 µg/mL	–
CO[C@H]1C[C@H]2C=C[C@H]3[C@H]4O[C@]2(/C(C)=C/[C@@H](C)[C@@H]([C@@H](C)O)OC1=O)[C@@H]3[C@H](O)[C@@H](C)[C@@H]4N1CCCC1 [Example 161, (3R,4S,7S,8aS,10aR,11R,12S,13S,14R,14aS,14bS,E)-14-hydroxy-4-((R)-1-hydroxyethyl)-7-methoxy-1,3,13-trimethyl-12-(pyrrolidin-1-yl)-3,4,8,8a,10a,11,12,13,14,14a-decahydro-11,14b-epoxynaphtho[2,1-e]oxecin-6(7H)-one]	–	> 105 µM	> 64 µg/mL	> 64 µg/mL	46.3 µM	> 64 µg/mL	–	–
CO[C@H]1C[C@H]2C=C[C@H]3[C@H]4O[C@]2(/C(C)=C/[C@@H](C)[C@@H]([C@H](C)N2C(=O)c5ccccc5C2=O)OC1=O)[C@@H]3[C@H](O)[C@@H](C)[C@H]4OC(=O)c1ccc[nH]1 [Example 172]	–	63.6 µM	–	> 128 µg/mL	~0.00776 µM	16 µg/mL (≈ 24.8 µM)	> 128 µg/mL	–
